Laboratory results from ChEMBL document CHEMBL1201862, “PubChem BioAssay data set” (2004).
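Compound exposure: 48 hours, 5 concentrations, 96-well plates. GI50 marks 50% less growth.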 The source made the active and inactive calls. Cut-off read from the data, not from the text of the source: active = GI50 up to about 1.1 µM and inactive = higher.

What was measured:
Experiment in all cases: NCI-60 cell line screen, 48 h
A498 = system: A498
NCI/ADR-RES = system: NCI/ADR-RES
M14 = system: M14
HCT-116 = system: HCT-116
SK-MEL-2 = system: SK-MEL-2
UO-31 = system: UO-31
TK-10 = system: TK-10
COLO 205 = system: COLO 205
NCI-H522 = system: NCI-H522
OVCAR-5 = system: OVCAR-5
U-251 = system: U-251
OVCAR-4 = system: OVCAR-4
MCF7 = system: MCF7
HOP-92 = system: HOP-92
CCRF-CEM = system: CCRF-CEM
SNB-19 = system: SNB-19
OVCAR-3 = system: OVCAR-3
UACC-62 = system: UACC-62
LOX IMVI = system: LOX IMVI

Compound	GI50 (A498)	GI50 (NCI/ADR-RES)	GI50 (M14)	GI50 (HCT-116)	GI50 (SK-MEL-2)	GI50 (UO-31)	GI50 (TK-10)	GI50 (COLO 205)	GI50 (NCI-H522)	GI50 (OVCAR-5)	GI50 (U-251)	GI50 (OVCAR-4)	GI50 (MCF7)	GI50 (HOP-92)	GI50 (CCRF-CEM)	GI50 (SNB-19)	GI50 (OVCAR-3)	GI50 (UACC-62)	GI50 (LOX IMVI)
O=C(Nc1ccc(Cl)cc1)c1cc(S(=O)(=O)Nc2nnc3c(Cl)cc(C(F)(F)F)cn23)c(S)cc1Cl	28.7 µM (inactive)	> 100 µM (inactive)	> 100 µM (inactive)	68.1 µM (inactive)	15 µM (inactive)	> 100 µM (inactive)	> 100 µM (inactive)	> 100 µM (inactive)	80 µM (inactive)	> 100 µM (inactive)	56.5 µM (inactive)	> 100 µM (inactive)	> 100 µM (inactive)	> 100 µM (inactive)	> 100 µM (inactive)	52.2 µM (inactive)	> 100 µM (inactive)	–	–
CCCn1cnc2c(/N=N/O)ncnc21	> 100 µM (inactive)	> 100 µM (inactive)	> 100 µM (inactive)	> 100 µM (inactive)	–	> 100 µM (inactive)	> 100 µM (inactive)	> 100 µM (inactive)	> 100 µM (inactive)	> 100 µM (inactive)	> 100 µM (inactive)	> 100 µM (inactive)	> 100 µM (inactive)	> 100 µM (inactive)	–	> 100 µM (inactive)	> 100 µM (inactive)	> 100 µM (inactive)	–
CC1(C)[C@@H]2C[C@H]1C(Cc1ccc(C[C@H]3c4cc(-c5ccccn5)ncc4[C@H]4C[C@@H]3C4(C)C)cc1)c1cc(-c3ccccn3)ncc12 (stereo partly specified)	2.36 µM (inactive)	2.71 µM (inactive)	1.16 µM (inactive)	0.75 µM (active)	7.38 µM (inactive)	0.931 µM (active)	0.841 µM (active)	1.41 µM (inactive)	7.14 µM (inactive)	1.46 µM (inactive)	1.01 µM (active)	–	1.89 µM (inactive)	–	0.619 µM (active)	3.32 µM (inactive)	0.679 µM (active)	0.67 µM (active)	0.843 µM (active)
O=C(Cc1ccccc1)N/N=C1\C(=O)Nc2ccccc21	0.229 µM (active)	52.4 µM (inactive)	> 100 µM (inactive)	> 100 µM (inactive)	> 100 µM (inactive)	48.2 µM (inactive)	> 100 µM (inactive)	> 100 µM (inactive)	48.1 µM (inactive)	> 100 µM (inactive)	61.1 µM (inactive)	> 100 µM (inactive)	49.8 µM (inactive)	–	> 100 µM (inactive)	> 100 µM (inactive)	> 100 µM (inactive)	> 100 µM (inactive)	–
CC(C)C(/C=C/c1ccc(Cl)cc1)=N\NC(=S)NN	23.8 µM (inactive)	17.7 µM (inactive)	18.9 µM (inactive)	2.99 µM (inactive)	7.03 µM (inactive)	17.9 µM (inactive)	8.87 µM (inactive)	24.2 µM (inactive)	6.58 µM (inactive)	30.9 µM (inactive)	6.61 µM (inactive)	–	15.6 µM (inactive)	–	2.68 µM (inactive)	76.4 µM (inactive)	20.1 µM (inactive)	4.51 µM (inactive)	7.76 µM (inactive)
N#C[C@H](c1nc2ccccc2s1)c1nc2ccccc2nc1Cl	> 100 µM (inactive)	> 100 µM (inactive)	15.7 µM (inactive)	> 100 µM (inactive)	33.7 µM (inactive)	23.3 µM (inactive)	–	> 100 µM (inactive)	57.3 µM (inactive)	17.9 µM (inactive)	> 100 µM (inactive)	16.3 µM (inactive)	5.56 µM (inactive)	19.1 µM (inactive)	> 100 µM (inactive)	> 100 µM (inactive)	17.2 µM (inactive)	14.3 µM (inactive)	–
